In US20240009651A1, “PRE-COATINGS FOR BIOCOMPATIBLE SOLID PHASE MICROEXTRACTION DEVICES” (SIGMA-ALDRICH CO. LLC, priority 2020, published 2024):

Tests used:
[1] = cited from earlier work; for Physiological Charge: physiological pH
Human plasma = assay: in vitro
Protocol: (§1) Protein Binding by BioSPME was studied. A 96-pin device was prepared with an […] pre-coating and PAN/C18 BioSPME coating. Human plasma and buffer were spiked at a therapeutically relevant concentration and incubated for one hour at 37° C. while shaking at 300 rpm. After the incubation, 200 μL plasma and buffer were loaded into separate columns on to the extraction well plate (n=8). The determination of the protein binding was determined by automated robotic method using the BioSPME C18 96-pin tool. Briefly, the pin tool is conditioned for twenty minutes static in isopropanol, then it is transferred into a new well plate for 10 seconds in water (wash step). This is followed by the extraction step. The pin tool is transferred into the preloaded extraction plate described earlier. Here, the pin tool extracts the analytes while shaking at 1200-1250 rpm at 37° C. for 15 minutes. The pin tools return to the water solution for a 60 seconds wash and finally transferred into a desorption plate. The desorption solution is a 80:20 methanol:water and desorbs for 20 minutes under static conditions. Samples were analyzed using methods described in Tables 5 and 6.
(§2) The extraction plates used in this study included both plastic and glass-coated plates. The choice of the plate depended on the compound properties and how well the compound behaved in buffer solution.
(§3) Determination of % Free Fraction (Fu) by BioSPME
(§4) BioSPME method determines the free concentration of analyte in plasma by comparing it with the extraction of the analyte from buffer samples where 100% of the analyte is considered to be free of protein biding.
(§5) The percent free or percent unbound is determined in Eq. 1:
(§6) where concentration free represents the unbound concentration of the analyte in the matrix in this case plasma, and concentration total represents the total concentration of analyte. The amount extracted is independent of units and can be applied using preferred quantities (e.g. nanograms or moles) Mfree, and extraction volume of plasma, Vplasma. The concentration of analyte in the desorption solution is quantified by an external calibration curve, and if the desorption volume is equal to the plasma and buffer extraction volumes, the concentration from desorption will be equal to the extracted concentration as shown in Eq 2.
(§7) The bound fraction, FB, can be determined from the extracted concentrations as shown in Eq 6.
(§8) In cases where depletion of compounds from plasma was pronounced upon BioSPME extraction (extraction exceeded 5% of total spiked analyte), a correction to the calculated Bound Fraction was required as described below:
(§9) where B and P, represent the respective amounts extracted from buffer, B, and plasma, P. B^0 represents the concentration the samples were spiked originally.

in vitro = details: human
Protocol: as §1, §2, §3, §4, §5, §6, §7, §8, §9

[2] = Non-specific binding to plastic extraction plates; assay type: in vitro ADME; details: plastic versus glass-coated 96-well extraction plates, buffer solution
Text: as §2

[3] = human plasma, spiked 100 ng/mL, 200 μL sample, 37° C., n = 8

SMILES | Physiological Charge [1] | Ave. Buffer Extracted (Human plasma; 15 min, 100 ng/mL) | Ave. Plasma Extracted (Human plasma; human, 15 min, 100 ng/mL) | Ave. FB(%) (bound fraction) (Human plasma; human, 1 h, 100 ng/mL) | fraction unbound at 1 h, 100 ng/mL (in vitro; plasma) | also measured
O=C1CC2(CCCC2)CC(=O)N1CCCCN1CCN(c2ncccn2)CC1 [Buspirone] | – | – | – | – | – | pKa [1]: 4.12
NC(=O)N1c2ccccc2C=Cc2ccccc21 [Carbamazepine] | 0 | 34.7 ng/mL | 8.2 ng/mL | 76.4% | 0.236 | –
CC[C@H]1OC(=O)[C@H](C)[C@@H](O[C@H]2C[C@@](C)(OC)[C@@H](O)[C@H](C)O2)[C@H](C)[C@@H](O[C@@H]2O[C@H](C)C[C@H](N(C)C)[C@H]2O)[C@](C)(O)C[C@@H](C)C(=O)[C@H](C)[C@@H](O)[C@]1(C)O [Erythromycin] | – | 35.0 ng/mL | 6.5 ng/mL | 81.8% | 0.182 | –
CN(C)CCCN1c2ccccc2CCc2ccccc21 [Imipramine] | 1 | 65.4 ng/mL | 12.2 ng/mL | – | – | non-specific binding to plastic [2]: exhibit non-specific biding to plastic; Ave. FB(%) (bound fraction) (Human plasma; [3]): 92.6%; fraction unbound at 1 h, 100 ng/mL (in vitro; human plasma): 0.074
CC(=O)N1CCN(c2ccc(OCC3COC(Cn4ccnc4)(c4ccc(Cl)cc4Cl)O3)cc2)CC1 (centres unmarked) [Ketoconazole] | 0 | – | – | – | – | non-specific binding to plastic [2]: exhibit non-specific biding to plastic; pKa [1]: 6.75; Ave. Buffer Extracted (Human plasma; 15 min, 500 ng/mL): 282.4 ng/mL; Ave. FB(%) (bound fraction) (Human plasma; human plasma, spiked 500 ng/mL, 200 μL sample, 37° C., n = 8): 96.8%; Ave. Plasma Extracted (Human plasma; human, 15 min, 500 ng/mL): 20.0 ng/mL; fraction unbound at 1 h, 500 ng/mL (in vitro; human plasma): 0.032
CCn1cc(C(=O)O)c(=O)c2ccc(C)nc21 [Nalidixic Acid] | – | – | – | – | – | Log P [1]: 1.59; Ave. Buffer Extracted (Human plasma; 15 min, 2000 ng/mL): 16.35 ng/mL; Ave. Plasma Extracted (Human plasma; human, 15 min, 2000 ng/mL): 0.5 ng/mL; Ave. FB(%) (bound fraction) (Human plasma; human, 1 h, 2000 ng/mL): 97.0%; fraction unbound at 1 h, 2000 ng/mL (in vitro; plasma): 0.03
CC(C)NCC(O)COc1cccc2ccccc12 (centres unmarked) [Propranolol] | 1 | 18.3 ng/mL | 1.7 ng/mL | 90.5% | 0.095 | –
CC(=O)CC(c1ccccc1)c1c(O)c2ccccc2oc1=O (centres unmarked) [Warfarin] | – | – | – | – | – | Ave. Buffer Extracted (Human plasma; 15 min, 2500 ng/mL): 10.0 ng/mL; Ave. Plasma Extracted (Human plasma; human, 15 min, 2500 ng/mL): <0.1 ng/mL; Ave. FB(%) (bound fraction) (Human plasma; human, 1 h, 2500 ng/mL): 99.8%; fraction unbound at 1 h, 2500 ng/mL (in vitro; plasma): 0.002
Cc1ccc(-c2nc3ccc(C)cn3c2CC(=O)N(C)C)cc1 [Zolpidem] | 0 | – | – | – | 0.031 | Ave. Buffer Extracted (Human plasma; buffer, spiked 100 ng/mL, 200 μL sample, n = 8): 68.4 ng/mL; Ave. FB(%) (bound fraction) (Human plasma; [3]): 96.9%; Ave. Plasma Extracted (Human plasma; human plasma, spiked 100 ng/mL, 200 μL sample, n = 8): 2.1 ng/mL
C[C@]12C=CC(=O)C=C1CC[C@@H]1[C@@H]2[C@@H](O)C[C@@]2(C)[C@H]1CC[C@]2(O)C(=O)CO [prednisolone] | 0 | 62.1 ng/mL | 13.5 ng/mL | 78.2% | 0.218 | –
